The record followed here is US20130345053A1, “Fungicidal Composition” (ICA LABORATORIES CC, priority 2011, published 2013).

Test [1] has as its system penicillium expansum. Put plainly: in vivo efficacy on Golden apples, preventive sprinkling then inoculation, fruit affected by rot counted. Conditions: for Efficacy: Golden apples, 20° C., scored from three weeks; for control of the growth of the fungus (in words): hexanal 1000 ppm, imidazalil 250 ppm, alone or combined, apples. On the procedure:
This example provides an illustration of the efficacy of the composition according to the invention for combating penicillium expansum on apples. The trial was carried out in vivo.
The fungicidal compositions were used in solution at the doses detailed in Table 2. Apples of the Golden variety, untreated after harvest, were treated by sprinkling a fungicidal solution up to the run-of limit at the doses described in Table 2 (10 apples per product). Six hours later, the fruit was inoculated by sprinkling an aqueous suspension at 150000 spores/ml of […]. obtained from a pre-culture on PDA medium. This inoculation by sprinkling was carried out up to the run-off limit. The fruit was then stored in the dark at 20° C. and 100% relative humidity and the scores for the disease were measured three weeks later, for a period of two weeks. The numbers of fruit samples affected by rot were counted and, in comparison with the untreated control, a percentage efficacy was calculated using the formula
(§1) (Diameter of the Control−Diameter of the Trial/Diameter of the Control×100)

Test [2] deals with geotrichum candidum. Put plainly: in vivo efficacy on valencia citrus, wound inoculation then treatment six hours later, fruit affected by rot counted. Conditions: 5° C., 28 days. On the procedure:
This trial was carried out in vivo.
The fungicidal compositions were used in solution at the doses detailed in Table 3. Citrus of the valencia variety, untreated after harvest, was treated by sprinkling a fungicidal solution up to the run-off limit at the doses described in Table 3 of results (10 citrus per product). First inoculation by pre-made wounds was made with a suspension of 150000 spores/ml of geotrichum candidum, obtained from a pre-culture on PDA medium. Then six hours later, the product tested was applied up to the run-off limit. The fruit were then stored in the dark at 5° C. and 100% relative humidity and the scores for the disease were measured 28 days later.
The number of fruit samples affected by rot was counted and, in comparison with the untreated control, a percentage efficacy was calculated and show in table 3 below: […]

For test [3], the system named is penicilium italicum. Put plainly: in vitro efficacy on PDA medium in microtitre plate wells (radial growth of colony). Conditions: for control of the growth of the fungus (in words): 60 ppm each, alone or combined; for Radial growth of fungus / Efficacy: 60 ppm, PDA medium, 22° C.; for Radial growth of fungus: control 20 mm; for Efficacy: versus untreated control. It counts as cell-based. The procedure:
This example illustrates the efficacy of the composition according to the invention for controlling penicilium italicum. The trial was carried out in vitro.
The fungicidal compositions were used in the form of the formulated product incorporated in PDA medium in superfusion at doses in an amount of 6 μl of fungicidal solutions together with 1000 μl of PDA per well of 20 mm in diameter of a microtitre plate (four repeats/product). One day later, a microdrop of an aqueous suspension of penicilium italicum supplemented with 400 ppm of Tween 20 was brought to the surface of each well of the microtitre plate. The cultures were then incubated at 22° C. at 60% relative humidity under subdued light until the control culture (without fungicide) had covered the entire surface of the well. The diameter of each colony was then measured and, in comparison with untreated control, a percentage efficacy was calculated using the formula
as §1

On to `C=CCOC(Cn1ccnc1)c1ccc(Cl)cc1Cl` (stereo not drawn) [Imazalil, imazalil], for which the Efficacy came out at 28% in test [1] (250 ppm) and 0% in test [2] (500 ppm). For the same compound, in test [1], the “control of the growth of the fungus (in words)” value (shortened to “control”) is given as “did not control the growth of the fungus”.

Consider `CCCCCC=O` [hexanal], for which the “control” value in test [3] is given as “poor results”; in test [1], “did not control the growth of the fungus”. Moreover, the “Radial growth of fungus” value in test [3] came to 19 mm. The Efficacy is recorded as 5% in test [3], 12% in test [1] (1000 ppm) and 20% in test [2] (1500 ppm).

As to `CCCN(CCOc1c(Cl)cc(Cl)cc1Cl)C(=O)n1ccnc1` [procloraz, prochloraz], in test [3], the “control” value is on record as “poor results”, the “Radial growth of fungus” value is 18 mm and the Efficacy turned out to be 10%.
